Source: US10954219B2, “1,3-benzodioxole derivative” (DAIICHI SANKYO COMPANY, LIMITED, priority 2014, dated 2021)
Counter-ions that a name gives are not always drawn.

Assays:
PRC2-EZH1 (WT EZH1) = PRC2-EZH1 (WT EZH1) (Homo sapiens, UniProt Q92800); assay: EZH1 methyltransferase inhibitory activity evaluation
[1] = system: Intracellular H3K27me3 in HCT116 cells; assay: Intracellular H3K27me3 inhibitory activity evaluation; assay type: cell-based; settings: Homo sapiens, HCT-116, 72 h, 3 days, AlphaLISA, read-out: Test Example 3 H3K27me3 inhibition (HCT116) IC50
PRC2-EZH2 (WT EZH2) = biological target: T1, PRC2-EZH2 (WT EZH2) (Homo sapiens, UniProt Q15910); assay: EZH2 methyltransferase inhibitory activity evaluation; assay type: biochemical; settings: PRC2-EZH2, biotin-H3 peptide, 3H-SAM, 2 hours
T1 construct: made in house
T1 sequence (Q15910 whole entry): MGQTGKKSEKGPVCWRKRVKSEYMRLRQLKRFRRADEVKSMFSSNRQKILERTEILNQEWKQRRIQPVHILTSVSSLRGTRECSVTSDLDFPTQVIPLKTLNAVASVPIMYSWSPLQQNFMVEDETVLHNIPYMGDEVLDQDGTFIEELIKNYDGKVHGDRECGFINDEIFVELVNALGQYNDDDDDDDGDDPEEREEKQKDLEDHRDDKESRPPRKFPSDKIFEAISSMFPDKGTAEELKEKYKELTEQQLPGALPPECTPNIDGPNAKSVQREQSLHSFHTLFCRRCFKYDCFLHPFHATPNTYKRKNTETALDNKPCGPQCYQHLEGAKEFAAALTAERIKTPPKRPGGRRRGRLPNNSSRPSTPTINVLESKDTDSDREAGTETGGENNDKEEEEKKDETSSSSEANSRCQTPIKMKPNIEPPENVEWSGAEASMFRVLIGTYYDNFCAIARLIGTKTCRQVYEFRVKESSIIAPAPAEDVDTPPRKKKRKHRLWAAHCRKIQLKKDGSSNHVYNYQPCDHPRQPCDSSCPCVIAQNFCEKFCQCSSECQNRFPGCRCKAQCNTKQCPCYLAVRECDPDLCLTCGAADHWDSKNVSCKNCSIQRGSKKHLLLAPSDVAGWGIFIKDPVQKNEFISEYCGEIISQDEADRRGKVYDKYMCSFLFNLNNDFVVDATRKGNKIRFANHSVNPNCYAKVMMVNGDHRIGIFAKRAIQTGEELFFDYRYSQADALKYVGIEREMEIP
T1 sequence (O75530 whole entry partner): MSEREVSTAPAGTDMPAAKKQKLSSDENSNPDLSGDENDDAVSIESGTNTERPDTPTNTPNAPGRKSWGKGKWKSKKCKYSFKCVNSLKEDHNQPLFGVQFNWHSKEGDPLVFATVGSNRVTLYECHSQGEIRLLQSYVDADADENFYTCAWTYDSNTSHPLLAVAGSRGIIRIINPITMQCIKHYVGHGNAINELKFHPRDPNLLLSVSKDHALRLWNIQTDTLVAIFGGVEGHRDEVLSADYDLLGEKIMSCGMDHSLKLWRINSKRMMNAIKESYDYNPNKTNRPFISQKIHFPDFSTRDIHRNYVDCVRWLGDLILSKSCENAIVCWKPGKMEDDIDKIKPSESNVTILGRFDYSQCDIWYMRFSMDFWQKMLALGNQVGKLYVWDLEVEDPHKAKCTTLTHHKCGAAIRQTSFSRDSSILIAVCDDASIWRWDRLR
T1 sequence (Q15022 whole entry partner): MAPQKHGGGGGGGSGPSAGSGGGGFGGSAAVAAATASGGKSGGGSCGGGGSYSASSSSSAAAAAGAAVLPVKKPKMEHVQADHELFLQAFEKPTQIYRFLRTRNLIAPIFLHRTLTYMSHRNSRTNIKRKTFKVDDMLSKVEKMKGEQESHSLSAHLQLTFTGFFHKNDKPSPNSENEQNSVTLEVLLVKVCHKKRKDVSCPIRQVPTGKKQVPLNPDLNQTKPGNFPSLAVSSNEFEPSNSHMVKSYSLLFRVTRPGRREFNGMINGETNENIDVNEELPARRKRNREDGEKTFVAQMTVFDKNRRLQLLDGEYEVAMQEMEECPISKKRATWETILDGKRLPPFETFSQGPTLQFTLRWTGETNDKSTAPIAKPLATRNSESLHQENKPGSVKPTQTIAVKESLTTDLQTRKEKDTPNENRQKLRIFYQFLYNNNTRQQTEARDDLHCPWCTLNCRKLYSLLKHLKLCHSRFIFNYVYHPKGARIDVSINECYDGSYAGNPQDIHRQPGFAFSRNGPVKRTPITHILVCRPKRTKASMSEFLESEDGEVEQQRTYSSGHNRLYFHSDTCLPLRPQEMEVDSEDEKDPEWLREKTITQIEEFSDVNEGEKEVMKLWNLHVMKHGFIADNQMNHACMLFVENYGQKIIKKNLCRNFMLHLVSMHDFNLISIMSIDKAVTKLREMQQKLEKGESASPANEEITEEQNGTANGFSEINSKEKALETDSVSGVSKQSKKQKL

Sequence of PRC2-EZH1 (WT EZH1) (Q92800 whole entry): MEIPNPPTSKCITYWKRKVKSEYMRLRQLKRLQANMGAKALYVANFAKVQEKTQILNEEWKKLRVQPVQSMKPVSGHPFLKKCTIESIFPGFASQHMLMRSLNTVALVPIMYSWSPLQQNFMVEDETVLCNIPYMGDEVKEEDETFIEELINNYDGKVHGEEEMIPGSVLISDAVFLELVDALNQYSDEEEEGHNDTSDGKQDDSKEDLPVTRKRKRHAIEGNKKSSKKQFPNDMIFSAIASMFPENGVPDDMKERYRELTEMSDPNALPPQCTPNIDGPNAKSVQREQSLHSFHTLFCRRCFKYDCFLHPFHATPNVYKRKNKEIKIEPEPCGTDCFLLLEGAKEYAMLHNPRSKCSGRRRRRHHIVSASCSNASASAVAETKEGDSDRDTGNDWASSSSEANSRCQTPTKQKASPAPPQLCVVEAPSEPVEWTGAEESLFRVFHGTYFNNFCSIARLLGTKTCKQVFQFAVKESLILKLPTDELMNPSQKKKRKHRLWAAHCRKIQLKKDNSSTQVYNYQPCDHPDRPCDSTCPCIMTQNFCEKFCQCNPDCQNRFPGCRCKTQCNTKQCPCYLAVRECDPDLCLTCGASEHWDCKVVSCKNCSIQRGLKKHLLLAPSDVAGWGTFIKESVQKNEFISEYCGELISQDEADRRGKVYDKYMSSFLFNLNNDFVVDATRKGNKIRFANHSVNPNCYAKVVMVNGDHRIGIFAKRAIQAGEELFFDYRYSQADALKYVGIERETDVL
Sequence of PRC2-EZH1 (WT EZH1) (O75530 whole entry partner): as the sequence (O75530 whole entry partner) above
Sequence of PRC2-EZH1 (WT EZH1) (Q15022 whole entry partner): as the sequence (Q15022 whole entry partner) above
Sequence of PRC2-EZH1 (WT EZH1) (Q09028 whole entry partner): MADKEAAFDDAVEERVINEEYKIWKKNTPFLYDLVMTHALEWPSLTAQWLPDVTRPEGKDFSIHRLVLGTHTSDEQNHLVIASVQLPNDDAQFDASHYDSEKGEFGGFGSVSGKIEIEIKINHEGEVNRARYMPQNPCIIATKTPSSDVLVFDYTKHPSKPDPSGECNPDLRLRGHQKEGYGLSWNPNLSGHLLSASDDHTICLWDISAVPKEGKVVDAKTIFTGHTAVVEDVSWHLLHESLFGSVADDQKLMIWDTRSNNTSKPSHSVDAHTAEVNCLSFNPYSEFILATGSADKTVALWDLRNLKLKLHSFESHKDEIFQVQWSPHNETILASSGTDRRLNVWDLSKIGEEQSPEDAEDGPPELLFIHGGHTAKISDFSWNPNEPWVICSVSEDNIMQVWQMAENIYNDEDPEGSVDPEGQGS
Sequence of PRC2-EZH1 (WT EZH1) (Q6ZN18 whole entry partner): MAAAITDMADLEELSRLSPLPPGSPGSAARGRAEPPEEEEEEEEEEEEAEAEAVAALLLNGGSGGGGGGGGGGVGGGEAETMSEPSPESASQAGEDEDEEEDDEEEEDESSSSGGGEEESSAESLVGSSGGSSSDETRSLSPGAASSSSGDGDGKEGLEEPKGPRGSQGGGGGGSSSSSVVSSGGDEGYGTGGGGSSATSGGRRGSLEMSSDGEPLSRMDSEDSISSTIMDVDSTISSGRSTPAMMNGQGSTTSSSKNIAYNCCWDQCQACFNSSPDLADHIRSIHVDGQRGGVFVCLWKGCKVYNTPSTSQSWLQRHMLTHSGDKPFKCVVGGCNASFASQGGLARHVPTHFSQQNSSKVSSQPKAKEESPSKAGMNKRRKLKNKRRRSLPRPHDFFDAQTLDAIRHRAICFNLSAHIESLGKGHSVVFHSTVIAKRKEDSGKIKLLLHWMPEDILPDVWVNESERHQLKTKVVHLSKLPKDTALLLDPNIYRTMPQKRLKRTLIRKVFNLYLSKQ

SMILES	IC50 (PRC2-EZH1 (WT EZH1))	IC50 [1]	IC50 (PRC2-EZH2 (WT EZH2))
CCN1CCC(CC2(C)Oc3c(Br)cc(C(=O)NCc4c(C)cc(C)[nH]c4=O)c(C)c3O2)CC1 (stereo not drawn) [Example 26, 7-Bromo-N-[(4,6-dimethyl-2-oxo-1,2-dihydropyridin-3-yl)methyl]-2-[(1-ethyl-4-piperidyl)methyl]-2,4-dimethyl-1,3-benzodioxole-5-carboxamide]	0.19 µM	0.037 µM	0.023 µM
CCN(CC)[C@H]1CC[C@H](C2(C)Oc3c(Br)cc(C(=O)NCc4c(C)cc(C)[nH]c4=O)c(C)c3O2)CC1 (relative stereo) [Example 21, 7-Bromo-2-[trans-4-(diethylamino)cyclohexyl]-N-[(4,6-dimethyl-2-oxo-1,2-dihydropyridin-3-yl)methyl]-2,4-dimethyl-1,3-benzodioxole-5-carboxamide]	0.06 µM	0.01 µM	0.018 µM
Cc1cc(C)c(CNC(=O)c2cc(Br)c3c(c2C)O[C@@](C)(CN2CCOCC2)O3)c(=O)[nH]1 [Example 45, (2R)-7-Bromo-N-[(4,6-dimethyl-2-oxo-1,2-dihydropyridin-3-yl)methyl]-2,4-dimethyl-2-(morpholinomethyl)-1,3-benzodioxole-5-carboxamide]	0.11 µM	0.013 µM	0.0096 µM
CCN1CCC(C2(C)Oc3c(Cl)cc(C(=O)NCc4c(C)cc(C)[nH]c4=O)c(Cl)c3O2)CC1 (stereo not drawn) [Example 52, 4,7-Dichloro-N-[(4,6-dimethyl-2-oxo-1,2-dihydropyridin-3-yl)methyl]-2-(1-ethyl-4-piperidyl)-2-methyl-1,3-benzodioxole-5-carboxamide]	0.37 µM	0.037 µM	0.029 µM
CCN1CCC([C@@]2(C)Oc3c(Br)cc(C(=O)NCc4c(C)cc(C)[nH]c4=O)c(C)c3O2)CC1 [Example 7, (2R)-7-Bromo-N-[(4,6-dimethyl-2-oxo-1,2-dihydropyridin-3-yl)methyl]-2-(1-ethyl-4-piperidyl)-2,4-dimethyl-1,3-benzodioxole-5-carboxamide]	0.038 µM	0.0084 µM	0.0036 µM
Cc1cc(C)c(CNC(=O)c2cc(Br)c3c(c2C)OC(C)(CN2CCNCC2)O3)c(=O)[nH]1 (stereo not drawn) [Example 42, 7-Bromo-N-[(4,6-dimethyl-2-oxo-1,2-dihydropyridin-3-yl)methyl]-2,4-dimethyl-2-(piperazin-1-ylmethyl)-1,3-benzodioxole-5-carboxamide]	0.19 µM	0.067 µM	0.027 µM
Cc1cc(C)c(CNC(=O)c2cc(Cl)c3c(c2Cl)OC(C)(C2CCN(C)CC2)O3)c(=O)[nH]1 (stereo not drawn) [Example 51, 4,7-Dichloro-N-[(4,6-dimethyl-2-oxo-1,2-dihydropyridin-3-yl)methyl]-2-methyl-2-(1-methyl-4-piperidyl)-1,3-benzodioxole-5-carboxamide]	0.39 µM	0.042 µM	0.035 µM
CCN[C@H]1CC[C@H](C2(C)Oc3c(Br)cc(C(=O)NCc4c(C)cc(C)[nH]c4=O)c(C)c3O2)CC1 (relative stereo) [Example 19, 7-Bromo-N-[(4,6-dimethyl-2-oxo-1,2-dihydropyridin-3-yl)methyl]-2-[trans-4-(ethylamino)cyclohexyl]-2,4-dimethyl-1,3-benzodioxole-5-carboxamide]	0.028 µM	0.011 µM	0.025 µM
Cc1cc(C)c(CNC(=O)c2cc(Br)c3c(c2C)OC(C)(C[C@H]2CC[C@H](N(C)C)CC2)O3)c(=O)[nH]1 (relative stereo) [Example 28, 7-Bromo-2-[[trans-4-(dimethylamino)cyclohexyl]methyl]-N-[(4,6-dimethyl-2-oxo-1,2-dihydropyridin-3-yl)methyl]-2,4-dimethyl-1,3-benzodioxole-5-carboxamide]	0.078 µM	0.014 µM	0.02 µM
Cc1cc(C)c(CNC(=O)c2cc(C)c3c(c2C)OC(C)([C@H]2CC[C@H](N(C)C)CC2)O3)c(=O)[nH]1 (relative stereo) [Example 47, 2-[trans-4-(Dimethylamino)cyclohexyl]-N-[(4,6-dimethyl-2-oxo-1,2-dihydropyridin-3-yl)methyl]-2,4,7-trimethyl-1,3-benzodioxole-5-carboxamide]	0.022 µM	0.0014 µM	0.01 µM
Cc1cc(C)c(CNC(=O)c2cc(Br)c3c(c2C)OC(C)([C@H]2CC[C@H](CN(C)C)CC2)O3)c(=O)[nH]1 (relative stereo) [Example 24, 7-Bromo-2-[trans-4-[(dimethylamino)methyl]cyclohexyl]-N-[(4,6-dimethyl-2-oxo-1,2-dihydropyridin-3-yl)methyl]-2,4-dimethyl-1,3-benzodioxole-5-carboxamide]	0.14 µM	0.019 µM	0.012 µM
Cc1cc(C)c(CNC(=O)c2ccc3c(c2C)OC(C)([C@H]2CC[C@H](N(C)C)CC2)O3)c(=O)[nH]1 (relative stereo) [Example 23, 2-[trans-4-(Dimethylamino)cyclohexyl]-N-[(4,6-dimethyl-2-oxo-1,2-dihydropyridin-3-yl)methyl]-2,4-dimethyl-1,3-benzodioxole-5-carboxamide]	0.0041 µM	0.0028 µM	0.0056 µM

Other lines, results leading:

IC50 (PRC2-EZH1 (WT EZH1))	IC50 [1]	IC50 (PRC2-EZH2 (WT EZH2))	SMILES
0.053 µM	0.011 µM	0.028 µM	CCN1CCN(c2ccc(-c3cc(C(=O)NCc4c(C)cc(C)[nH]c4=O)c(C)c4c3OC(CC)(C3CCOCC3)O4)cn2)CC1 (stereo not drawn) [Example 55, N-[(4,6-Dimethyl-2-oxo-1,2-dihydropyridin-3-yl)methyl]-2-ethyl-7-[6-(4-ethylpiperazin-1-yl)-3-pyridyl]-4-methyl-2-(tetrahydropyran-4-yl)-1,3-benzodioxole-5-carboxamide]
0.013 µM	0.023 µM	0.029 µM	CCCc1cc(C)[nH]c(=O)c1CNC(=O)c1cc(-c2ccc(N3CCN(CC)CC3)nc2)c2c(c1C)OC(C)([C@H]1CC[C@H](N(C)C)CC1)O2 (relative stereo) [Example 74, 2-[trans-4-(Dimethylamino)cyclohexyl]-7-[6-(4-ethylpiperazin-1-yl)-3-pyridyl]-2,4-dimethyl-N-[(6-methyl-2-oxo-4-propyl-1,2-dihydropyridin-3-yl)methyl]-1,3-benzodioxole-5-carboxamide]
0.038 µM	0.0043 µM	0.026 µM	Cc1cc(C)c(CNC(=O)c2cc(-c3cncs3)c3c(c2C)OC(C)([C@H]2CC[C@H](N(C)C)CC2)O3)c(=O)[nH]1 (relative stereo) [Example 70, 2-[trans-4-(Dimethylamino)cyclohexyl]-N-[(4,6-dimethyl-2-oxo-1,2-dihydropyridin-3-yl)methyl]-2,4-dimethyl-7-thiazol-5-yl-1,3-benzodioxole-5-carboxamide hydrochloride]
0.026 µM	0.00063 µM	0.013 µM	Cc1cc(C)c(CNC(=O)c2cc(Cl)c3c(c2Cl)OC(C)([C@H]2CC[C@H](N(C)C)CC2)O3)c(=O)[nH]1 (relative stereo) [Example 53, 4,7-Dichloro-2-[trans-4-(dimethylamino)cyclohexyl]-N-[(4,6-dimethyl-2-oxo-1,2-dihydropyridin-3-yl)methyl]-2-methyl-1,3-benzodioxole-5-carboxamide]
0.017 µM	0.001 µM	0.019 µM	C#Cc1cc(C(=O)NCc2c(C)cc(C)[nH]c2=O)c(C)c2c1OC(C)([C@H]1CC[C@H](N(C)C)CC1)O2 (relative stereo) [Example 67, 2-[trans-4-(Dimethylamino)cyclohexyl]-N-[(4,6-dimethyl-2-oxo-1,2-dihydropyridin-3-yl)methyl]-7-ethynyl-2,4-dimethyl-1,3-benzodioxole-5-carboxamide]
0.032 µM	0.029 µM	0.024 µM	Cc1cc(C)c(CNC(=O)c2cc(-c3ccnc(N4CCN(C)CC4)c3)c3c(c2C)OC(C)([C@H]2CC[C@H](N(C)C)CC2)O3)c(=O)[nH]1 (relative stereo) [Example 69, 2-[trans-4-(Dimethylamino)cyclohexyl]-N-[(4,6-dimethyl-2-oxo-1,2-dihydropyridin-3-yl)methyl]-2,4-dimethyl-7-[2-(4-methylpiperazin-1-yl)-4-pyridyl]-1,3-benzodioxole-5-carboxamide]
0.022 µM	0.0068 µM	0.014 µM	Cc1cc(C)c(CNC(=O)c2cc(-c3cccnc3)c3c(c2C)OC(C)([C@H]2CC[C@H](N(C)C)CC2)O3)c(=O)[nH]1 (relative stereo) [Example 64, 2-[trans-4-(Dimethylamino)cyclohexyl]-N-[(4,6-dimethyl-2-oxo-1,2-dihydropyridin-3-yl)methyl]-2,4-dimethyl-7-(3-pyridyl)-1,3-benzodioxole-5-carboxamide]
0.012 µM	0.0061 µM	0.022 µM	CCc1cc(C)[nH]c(=O)c1CNC(=O)c1cc(-c2ccc(N3CCN(CC)CC3)nc2)c2c(c1C)OC(C)([C@H]1CC[C@H](N(C)C)CC1)O2 (relative stereo) [Example 73, 2-[trans-4-(Dimethylamino)cyclohexyl]-N-[(4-ethyl-6-methyl-2-oxo-1,2-dihydropyridin-3-yl)methyl]-7-[6-(4-ethylpiperazin-1-yl)-3-pyridyl]-2,4-dimethyl-1,3-benzodioxole-5-carboxamide hydrochloride]
0.017 µM	0.013 µM	0.022 µM	Cc1cc(C)c(CNC(=O)c2cc(-c3ccc(CN4CCOCC4)nc3)c3c(c2C)OC(C)([C@H]2CC[C@H](N(C)C)CC2)O3)c(=O)[nH]1 (relative stereo) [Example 63, 2-[trans-4-(Dimethylamino)cyclohexyl]-N-[(4,6-dimethyl-2-oxo-1,2-dihydropyridin-3-yl)methyl]-2,4-dimethyl-7-[6-(morpholinomethyl)-3-pyridyl]-1,3-benzodioxole-5-carboxamide]
